Experimental data taken from PubChem BioAssay (NCI).
Values joined by “and” are separate entries in the source; they are usually repeats but may differ in a detail not shown here. Identical values can stand only once.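 A five-concentration, 48-hour dose response in 96-well plates underlies each endpoint, interpolated linearly between surrounding concentrations. Here, GI50 denotes the concentration required for 50% inhibition of growth. TGI: concentration producing complete growth inhibition.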 Where a SMILES comes first, the peptide text is derived from it. [ ]: non-standard residue; d: D form. 2Nal = N[CH](Cc1ccc2ccccc2c1)C(=O)O

Tests used:
Assay in all cases: NCI anticancer screen, dose series, 48 h
[1] = tested on: HCT-15 colon
[2] = tested on: HOP-62 NSCLC
[3] = tested on: IGROV1 ovarian
[4] = tested on: KM12 colon
[5] = tested on: NCI-H226 lung
[6] = tested on: OVCAR-5 ovarian
[7] = tested on: SR leukemia
[8] = tested on: UACC-257 melanoma
[9] = tested on: UACC-62 melanoma
[10] = tested on: HCC-2998 colon

| SMILES | GI50 [1] | TGI [1] | GI50 [2] | TGI [2] | GI50 [3] | TGI [3] | GI50 [4] | TGI [4] | GI50 [5] | TGI [5] | GI50 [6] | TGI [6] | GI50 [7] | TGI [7] | GI50 [8] | TGI [8] | GI50 [9] | TGI [9] | TGI [10] | GI50 [10] |
| --- | --- | --- | --- | --- | --- | --- | --- | --- | --- | --- | --- | --- | --- | --- | --- | --- | --- | --- | --- | --- |
| O=C=Nc1ccc(Cc2ccc(N=C=O)cc2)cc1 (tested in a mixture with another compound) | > 25 µg/mL | > 25 µg/mL | > 25 µg/mL | > 25 µg/mL | > 25 µg/mL | > 25 µg/mL | > 25 µg/mL | > 25 µg/mL | > 25 µg/mL | > 25 µg/mL | > 25 µg/mL | > 25 µg/mL | > 25 µg/mL | > 25 µg/mL | > 25 µg/mL | > 25 µg/mL | > 25 µg/mL | > 25 µg/mL |  |  |
| COc1ccc(OC)c(CCc2cc(OC)c(OC)cc2C)c1 |  |  |  | > 100 µM |  | > 100 µM |  | > 100 µM |  |  |  | > 100 µM |  |  |  | > 100 µM |  | > 100 µM | > 100 µM |  |
| COc1ccc(C(=O)C(C(=O)C(=O)Nc2nc3ccc(OC)cc3s2)c2ccc(OC)cc2)cc1 (configuration not stated) |  | > 100 µM |  | > 100 µM |  | > 100 µM |  | > 100 µM |  | > 100 µM |  | > 100 µM |  |  |  | > 100 µM |  | > 100 µM | > 100 µM |  |
| Cc1ccc(C(=O)/C=C/c2ccccc2Cl)cc1 |  | 29.1 µM |  | > 100 µM |  | 32.9 µM |  | 30.2 µM |  | 61 µM |  | 41.9 µM |  |  |  | 33.6 µM |  | 27.7 µM | 33.2 µM |  |
| Oc1cccc(C2SCc3nc4ccccc4n32)c1 (configuration not stated) |  |  |  |  |  |  |  | > 100 µM |  | > 100 µM |  | > 100 µM |  | > 100 µM |  | > 100 µM |  | > 100 µM | > 100 µM |  |
| COC1OC(C)C(OC(=O)C(C)(C)C)C(C)(O)C1O (configuration not stated) |  | > 100 µM |  | > 100 µM |  | > 100 µM |  | > 100 µM |  |  |  | > 100 µM |  | > 100 µM |  | > 100 µM |  | > 100 µM | > 100 µM |  |
| Fc1cccc(F)c1C1SCc2nc3ccccc3n21 (configuration not stated) |  | > 100 µM |  | > 100 µM |  | > 100 µM |  | > 100 µM |  | > 100 µM |  | > 100 µM |  |  |  | > 100 µM |  | > 100 µM | > 100 µM |  |
| CC(NC(=O)C(N)Cc1ccccc1)C(=O)NC(Cc1ccc(O)cc1)C(=O)NC(Cc1c[nH]c2ccccc12)C(=O)NC(CCCCN)C(=O)NC(C(=O)NC(C)C(=O)NC(Cc1ccc2ccccc2c1)C(N)=O)C(C)C (configuration not stated) (H-FAYWKVA[2Nal]-NH2; configuration not given here) | 22.1 µM | > 12.5 µM and 61.8 µM | 23.1 µM | > 12.5 µM and 53.5 µM | 24.1 µM | > 12.5 µM and 49 µM | 21.9 µM | > 12.5 µM and 53.3 µM |  | > 12.5 µM |  | > 12.5 µM |  |  | > 100 µM | > 100 µM | 26.8 µM | > 12.5 µM and 75.7 µM | > 100 µM | 29.7 µM |
| COc1ccc2[nH]cc(/C=C3\C(=O)Nc4ccccc43)c2c1 | 3.86 µM | 17.5 µM | 5.18 µM | 19.8 µM | 2.82 µM | 16.8 µM | 0.246 µM | 13 µM | 7.65 µM | 35.9 µM | 11.6 µM | 42 µM | 1.96 µM | 5.2 µM | 14.3 µM | 73.1 µM | 4.09 µM | 20.6 µM |  |  |
| COc1ccc2cc(C(=O)/C=C/c3ccc(OC)c(OC)c3)ccc2c1 | 3.11 µM | > 100 µM | 18 µM | 41.6 µM | 10.5 µM | 78.2 µM | 4.82 µM | 32.1 µM |  |  |  |  | 2.04 µM | 6.16 µM |  |  | 16.2 µM | 39.2 µM |  |  |
| COc1ccc(-c2c(N)[n+]([O-])c3cc(C)c(C)cc3[n+]2[O-])cc1OC |  | > 100 µM |  | > 100 µM |  | > 100 µM |  | > 100 µM |  | > 100 µM |  | > 100 µM |  |  |  | > 100 µM |  | > 100 µM | > 100 µM |  |
| CCCCCCCCCCCCCCCCCC(=O)NCCCNCCCNC(=O)CCCCCCCCCCCCCCCCC |  | > 100 µM |  | > 100 µM |  | > 100 µM |  |  |  | > 100 µM |  | > 100 µM |  |  |  | > 100 µM |  | > 100 µM | > 100 µM |  |
| C=C(CO)CC(O)c1ccccc1 (configuration not stated) |  | > 100 µM |  | > 100 µM |  | > 100 µM |  | > 100 µM |  | > 100 µM |  | > 100 µM |  |  |  |  |  | > 100 µM | > 100 µM |  |
| NC(C(=O)O)C(N)C(=O)O (configuration not stated) |  | > 100 µM |  | > 100 µM |  | > 100 µM |  | > 100 µM |  | > 100 µM |  | > 100 µM |  | > 100 µM |  | > 100 µM |  | > 100 µM |  |  |
| COC(=O)/C(=C/N1CCN(C(=O)c2ccco2)C1=S)C(C)=O | 2.22 µM | 5.77 µM | 20.6 µM | 42.8 µM | 10.4 µM | 36 µM | 3.04 µM | 9.78 µM |  |  |  |  |  |  | 17.2 µM | 39.3 µM | 11.5 µM | 28.3 µM |  |  |
| CC1=CCC2(C#N)CCC1C2=O (configuration not stated) |  | > 100 µM |  | > 100 µM |  | > 100 µM |  | > 100 µM |  | > 100 µM |  | > 100 µM |  | > 100 µM |  | > 100 µM |  | > 100 µM |  |  |
| Nc1ccc(-c2ccc(-c3nc4ccccc4[nH]3)cc2)cc1 | 8.09 µM | > 100 µM | 3.83 µM | 56.6 µM | 26.2 µM | > 82.4 µM | < 0.0248 µM | > 66.8 µM | 4.26 µM | 40.9 µM | > 75.9 µM | > 100 µM |  |  | 1.11 µM | > 100 µM | 0.61 µM | 3.61 µM | 0.438 µM | 0.105 µM |
| CC(=O)N1c2ccccc2C23CCN4CC5=CCOC(O)C(C5CC42)C13 (configuration not stated) |  | > 100 µM |  |  |  | > 100 µM |  | > 100 µM |  | > 100 µM |  | > 100 µM |  |  |  | > 100 µM |  | > 100 µM | > 100 µM |  |
| COc1cc(C2C(C(=O)O)=C(C)Oc3cc4c(cc32)OCO4)cc(OC)c1OC (configuration not stated) |  | > 100 µM |  |  |  | > 100 µM |  |  |  |  |  |  |  |  |  | > 100 µM |  | > 100 µM |  |  |
| CCCCCN(CCCCC)C(=O)[C@@H](CCC(=O)OCc1ccccc1)NC(=O)c1cc2ccccc2[nH]1 |  | > 100 µM |  | > 100 µM |  | > 100 µM |  | > 100 µM |  |  |  | > 100 µM |  |  |  | > 100 µM |  | > 100 µM | > 100 µM |  |
| CC(NC1CCC[C@H]1O)c1ccccc1 (mixture of isomers) |  | > 100 µM |  | > 100 µM |  | > 100 µM |  | > 100 µM |  | > 100 µM |  |  |  |  |  | > 100 µM |  | > 100 µM | > 100 µM |  |
| CC(=O)O[C@H]1CCC2[C@@H]3CCC4C(=O)c5oncc5C[C@]4(C)C3CC[C@@]21C (some centres not stated) |  | > 100 µM |  | > 100 µM |  | > 100 µM |  | > 100 µM |  |  |  | > 100 µM |  |  |  | > 100 µM |  | > 100 µM | > 100 µM |  |
| C[C@]12CC[C@H]3[C@@H](C[C@@H]4SC(Nc5cccc(F)c5)=N[C@@]45CC(=O)CC[C@]35C)[C@@H]1CCC2=O | 1.58 µM | 4.08 µM | 2.07 µM | 5.34 µM | 1.89 µM | 3.83 µM | 3 µM | 12.4 µM | 2.35 µM | 5.7 µM | 2.73 µM | 18 µM |  |  | 5.47 µM | 64.5 µM | 1.54 µM | 3.12 µM | 14.6 µM | 3.55 µM |
| O=C(C#Cc1c[nH]c(=O)[nH]c1=O)c1ccccc1 |  | 24.9 µM |  | 36.1 µM |  | 32.5 µM |  | 29 µM |  | 63.9 µM |  | 33.1 µM |  |  |  | 23.8 µM |  | 21.8 µM | 32.4 µM |  |
| Nc1nc(N)c(-c2ccccc2)c(C(=O)Nc2ccc(Cl)c(Cl)c2)n1 |  | > 100 µM |  | > 100 µM |  | > 100 µM |  | > 100 µM |  | > 100 µM |  | > 100 µM |  |  |  | > 100 µM |  | > 100 µM | > 100 µM |  |
| COC(=O)C1CCc2c(OC)ccc(OC)c2C1=O (configuration not stated) |  |  |  | > 100 µM |  | > 100 µM |  | > 100 µM |  |  |  | > 100 µM |  |  |  | > 100 µM |  | > 100 µM | > 100 µM |  |
| CC1=CC(C)C(O)C(C)/C=C/C(O)C/C=C(/C)C(=O)CC(O)C(C)\C=C/C=C/C=C\C(=O)NC2=C(O)c3cc(C)c(O)c(c3C(=O)C2=O)C1=O (configuration not stated) |  | > 100 µM |  | > 100 µM |  | > 100 µM |  | > 100 µM |  |  |  | > 100 µM |  | > 100 µM |  | > 100 µM |  | > 100 µM | > 100 µM |  |
| COCCOC(C)C(/C=N/NC(N)=S)=N/NC(N)=S (configuration not stated) | > 100 µM | > 100 µM | > 100 µM | > 100 µM |  |  | > 100 µM | > 100 µM | > 100 µM | > 100 µM | > 100 µM | > 100 µM |  |  | 0.0232 µM | > 100 µM | > 100 µM | > 100 µM | > 100 µM | > 100 µM |
| Cc1ccc(NC2=C(Cl)C(=O)c3nc(C)ccc3C2=O)cc1 | 0.694 µM | 2.32 µM | 0.836 µM | 2.58 µM | 1.54 µM | 3.35 µM | 2.59 µM | 12.1 µM | 1.41 µM | 3.2 µM | 1.87 µM | 3.62 µM |  |  | 1.58 µM | 3 µM | 1.57 µM | 2.97 µM | 3.2 µM | 1.67 µM |
| CC(=O)Nc1ccc(/C=c2\sc3nnc(/C=C/c4ccccc4)n3c2=O)cc1 |  |  |  | > 50 µM |  | > 50 µM |  | > 50 µM |  | > 50 µM |  | > 50 µM |  |  |  | > 50 µM |  | > 50 µM | > 50 µM |  |
